The nature of series [1]: Particle size and PDI of Luc-mRNA lipid nanoparticles (Nano-ZS ZEN3600, Malvern). The format is physicochemical. Conditions: LNP of amino lipid:DSPC:cholesterol:DMG-PEG2000 47.5:10:41:1.5 with Luc-mRNA; lipid to mRNA mass ratio about 40:1. As to the method:
(§1) The amino lipid compound of the present invention (or DLin-MC3 or SM-102 (both purchased from AVT (Shanghai) Pharmaceutical Technology Co., Ltd.)), phospholipid lipid (DSPC), cholesterol, and PEGylated lipid (DMG-PEG2000) were mixed and dissolved in anhydrous ethanol at a molar ratio of 47.5:10:41:1.5. The resulting ethanol solution and citric acid buffer (50 mM, pH = 4.0) dissolved with Luc-mRNA (TriLink) were mixed in a microfluidic chip at a volume ratio of 1:3 using a microfluidic preparation system to prepare a crude solution of lipid nanoparticles, which was then dialyzed in 1X PBS at 4°C for 6 h using a dialysis cassette (Fisher, MWCO 20,000). The product was filtered through a 0.22 µm microporous filter membrane before use. The mass ratio of the amino lipid compound to luciferase mRNA (Luc mRNA) was about 40:1.
The particle size and PDI (polydispersity index) of the prepared lipid nanoparticles were measured by Nano-ZSZEN3600 (Malvern). 20 µL of lipid nanoparticle (LNP) solution was taken for particle size measurement, and cycled three times with each cycle for 30 s.

The nature of series [2]: Encapsulation efficiency of Luc-mRNA lipid nanoparticles (Quant-iT RiboGreen RNA Kit). The format is physicochemical. The note with it: LNP of amino lipid:DSPC:cholesterol:DMG-PEG2000 47.5:10:41:1.5 with Luc-mRNA; lipid to mRNA mass ratio about 40:1. As to the method:
as §1
The encapsulation efficiency was determined according to the standard procedure of the Quant-iT RiboGreen RNA Kit. Table 1 Characterization data of LNPs prepared using representative amino lipid compounds

Series [3] concerns C57BL/6 mice. Description: In vivo delivery of luciferase mRNA by intramuscular injection of LNPs (IVIS imaging). Conditions: total fluorescence intensity, Luc mRNA LNP, 0.5 mg/kg mRNA, 12 hours. How it is done:
Preparation of lipid nanoparticles: same as Example 36.
(§2) Animal preparation: 6-week-old female C57BL/6 mice weighing about 20 g were selected and raised in an SPF-grade feeding room. Animal experiments were conducted strictly in accordance with the guidelines of the National Institutes of Health and animal ethics requirements.
In vivo delivery: Five C57BL/6 mice were randomly selected from each group and injected with lipid nanoparticle solution at a dose of 0.5 mg/kg mRNA by intramuscular injection. Twelve hours later, 200 µL of 10 mg/mL D-luciferin potassium salt was injected into the peritoneal cavity of each mouse. Five minutes later, the mice were placed under an in vivo imaging system (IVIS-200, Xenogen) to observe the total fluorescence intensity of each mouse and take photos for recording. The expression intensity of Luc mRNA delivered by intramuscular injection of LNPs composed of representative amino lipid compounds is shown in Table 3, with DLin-MC3 and SM-102 as controls. Table 3 Expression intensity of Luc mRNA delivered by intramuscular injection of LNPs composed of representative amino lipids

Series [4] has as its system primary BMDC cells. The experiment in a line: Transfection of Luc mRNA lipid nanoparticles on primary BMDC cells (ONE-Glo luciferase readout). The format is cell-based, C57BL/6 mice. Conditions: expression intensity of Luc mRNA on BMDCs; 10 µL LNP per well, 20,000 cells per well, 12 hours. How it is done: as §2
Cell acquisition: C57BL/6 mice were sacrificed by cervical dislocation and immersed in 75% alcohol for 5 minutes for disinfection. The thigh and tibia of the mice were dissected and the attached muscles were removed to expose the bone. The bone marrow in the tibia was blown out with a 1 mL syringe filled with PBS. The obtained bone marrow was dispersed by blowing and filtered through a 50 µm filter mesh to remove impurities. Red blood cell lysis solution (3-4 mL) was added to the obtained filtrate and allowed to stand for 5 minutes. Then, the supernatant was removed by centrifugation at 800 g for 5 minutes. The obtained cells were placed in 1640 culture medium (containing 10% fetal bovine serum, 20 ng/mL GMCSF, 10 ng/mL IL4) for being resuspended, and inoculated into 6-well plates at a density of 100,000 cells/mL of culture medium. The plates were placed in a cell culture incubator containing 5% CO2 at 37°C, and the medium was half-changed every 2 days. On the seventh day, the suspended cells and loosely adherent cells were collected and inoculated into 96-well all-white ELISA plates at a density of 20,000 cells per well, with a culture medium volume of 100 µL.
Cell transfection: the lipid nanoparticles encapsulating luciferase mRNA were added to a 96-well all-white ELISA plate with spreaded primary cells, and the volume of mRNA lipid nanoparticles added to each well was controlled to be 10 µL. Then, the plate was placed in an incubator with 5% CO2 concentration at 37°C for 12 hours.
Transfection efficiency detection: 20 µL of substrate ONE-Glo™ Luciferase was added to each well of a 96-well all-white ELISA plate, and the assay was performed using a multifunctional microplate reader (Biorek SynergyH1) after 1 min. The expression intensity of Luc mRNA transfected on BMDCs by lipid nanoparticles (LNPs) composed of representative amino lipid compounds is shown in Table 2, with DLin-MC3 and SM0102 as controls. Table 2 Expression intensity of transfection of representative amino lipid compounds on BMDCs

Series [5] relates to B16-OVA melanoma cells. Description: Tumor therapeutic effect of OVA mRNA LNP vaccine in B16-OVA melanoma-bearing mice. The format is in vivo, C57BL/6 mice. The note with it: for mice achieved complete remission: two intramuscular injections 7 days apart of LNP containing 1 µg OVA-mRNA (Figure 3); for tumor growth rate: two intramuscular injections 7 days apart of LNP containing 1 µg OVA-mRNA, compared with MC3 group (Figure 2). How it is done: Preparation method: The amino lipid compound of the present invention was mixed with DSPC, cholesterol and DMG-PEG2000 at a molar ratio of 47.5:10:41:1.5 and dissolved in anhydrous ethanol. The obtained ethanol solution and citric acid buffer (50 mM, pH = 4.0) dissolved with OVA-mRNA were mixed in a microfluidic chip at a volume ratio of 1:3 using a microfluidic preparation system to prepare lipid nanoparticles, and then dialyzed in 1X PBS at 4°C for 6 h using a dialysis cassette (Fisher, MWCO 20,000) and filtered with a 0.22 µm microporous filter membrane before use. The mass ratio of the amino lipid compound to ovalbumin mRNA (OVA mRNA) was about 40: 1.
Animal preparation: Female C57BL/6 mice aged 5-6 weeks, weighing about 18-20 g were selected and kept in an SPF-grade feeding room. Animal experiments were conducted strictly in accordance with the guidelines of the National Institutes of Health and animal ethics requirements.
In vivo delivery: B16-OVA melanoma cells (1.5 × 10^5) were injected subcutaneously into the lateral thigh of mice. Vaccination was started when the tumor size reached 50 mm^3(approximately day 6 or 7 after tumor inoculation). Animals were immunized twice by intramuscular injection of LNP formulation containing 1 µg of OVA-mRNA, with an interval of the second injection from the first injection being 7 days. Tumor growth was measured three times per week using a digital caliper and calculated as 0.5 × length × width × width. Mice were euthanized when tumor volume reached 1500 mm^3.

Consider `CCCCCCCCCCC(COC(=O)CCCCC)OC(=O)CCCCCN(CCCCCC(=O)OC(CCCCCCCCCC)COC(=O)CCCCC)[C@H]1CC[C@H](O)CC1` (relative stereo) [E12LA6B6O10], for which, in series [1], the “Average particle size (nm)” value was determined as 102 nm and the PDI was determined as 0.10. Further, the “Encapsulation efficiency (%)” value in series [2] stood at 93.0%. In addition, in series [3], the Fluorescence intensity was 1.6E+09.

Turning to `CCCCC/C=C\C/C=C\CCCCCCCCC(CCCCCCCC/C=C\C/C=C\CCCCC)OC(=O)CCCN(C)C` [DLin-MC3, reference compound], in series [1], the “Average particle size (nm)” value worked out at 72 nm and the PDI was 0.12. For the same compound, the “Encapsulation efficiency (%)” value in series [2] is recorded as 89.74%. Also, the Luminescence intensity in series [4] is 4.1E+04. In addition, the Fluorescence intensity in series [3] is recorded as 7.6 E+08.

Regarding `CCCCCCCC(=O)OCC(CCCCCC)OC(=O)CCCCCN(CCCO)CCCCCC(=O)OC(CCCCCC)COC(=O)CCCCCCC` (stereo not shown) [E8LA8B6O3], in series [1], the “Average particle size (nm)” value was 84 nm and the PDI is listed as 0.07. The “Encapsulation efficiency (%)” value in series [2] was determined as 90.03%. Further, the Luminescence intensity in series [4] was determined as 1.3E+05. This compound gave a Fluorescence intensity in series [3] of 7.7E+08.

With `CCCCCCCCCC(=O)OCC(CCCCCC)OC(=O)CCCCCN(CCCO)CCCCCC(=O)OC(CCCCCC)COC(=O)CCCCCCCCC` (stereo not shown) [E8LA10B6O3], in series [1], the “Average particle size (nm)” value came out at 73 nm and the PDI amounted to 0.09. In series [2], the “Encapsulation efficiency (%)” value is listed as 93.95%. The Luminescence intensity in series [4] is 5.2E+04. For the same compound, the Fluorescence intensity in series [3] is 1.6E+09.

As to `CCCCCCCCC(COC(=O)CCCCC)OC(=O)CCCCCN(CCCO)CCCCCC(=O)OC(CCCCCCCC)COC(=O)CCCCC` (stereo not shown) [E10LA6B6O3], in series [1], the “Average particle size (nm)” value was determined as 92 nm and the PDI is listed as 0.07. In addition, the “Encapsulation efficiency (%)” value in series [2] is recorded as 95.41%. For the same compound, the Luminescence intensity in series [4] came out at 1.5E+05. The Fluorescence intensity in series [3] came to 1.4E+09. Further, in series [5], the “mice achieved complete remission” value is on record as 80% and the tumor growth rate result is “significantly slower than that of the MC3 group”.

On to `CCCCCCCCC(COC(=O)CCCCCCC)OC(=O)CCCCCN(CCCO)CCCCCC(=O)OC(CCCCCCCC)COC(=O)CCCCCCC` (stereo not shown) [E10LA8B6O3], for which, in series [1], the “Average particle size (nm)” value was 71 nm and the PDI worked out at 0.11. In series [2], the “Encapsulation efficiency (%)” value is recorded as 92.23%. Moreover, the Fluorescence intensity in series [3] turned out to be 1.8E+09.

For the compound `CCCCCCCCCC(=O)OCC(CCCCCCCC)OC(=O)CCCCCN(CCCO)CCCCCC(=O)OC(CCCCCCCC)COC(=O)CCCCCCCCC` (stereo not shown) [E10LA10B6O3], in series [1], the “Average particle size (nm)” value is reported as 70 nm and the PDI was determined as 0.06. For the same compound, the “Encapsulation efficiency (%)” value in series [2] came out at 95.90%. In addition, the Luminescence intensity in series [4] came to 6.9E+04. Moreover, the Fluorescence intensity in series [3] is recorded as 1.2E+09.

On to `CCCCCCCCCCC(COC(=O)CCCCC)OC(=O)CCCCCN(CCCCCC(=O)OC(CCCCCCCCCC)COC(=O)CCCCC)CCCOC(=O)CCCCCCN(C)C` (stereo not shown) [E12LA6B6O3A6], for which, in series [1], the “Average particle size (nm)” value is listed as 103 nm and the PDI came to 0.07. The “Encapsulation efficiency (%)” value in series [2] is given as 98.5%. The compound also had a Fluorescence intensity in series [3] of 1.5E+09.

As to `CCCCCCCCCCC(COC(=O)CCCCC)OC(=O)CCCCCN(CCCO)CCCCCC(=O)OC(CCCCCCCCCC)COC(=O)CCCCC` (stereo not shown) [E12LA6B6O3], in series [1], the “Average particle size (nm)” value is listed as 75 nm and the PDI was 0.08. Moreover, the “Encapsulation efficiency (%)” value in series [2] came out at 98.26%. This compound also showed a Fluorescence intensity in series [3] of 2.2E+09. For the same compound, in series [5], the “mice achieved complete remission” value is recorded as 100% and the tumor growth rate result is “significantly slower than that of the MC3 group”.

On to `CCCCCCCCCCC(COC(=O)CCCCCCC)OC(=O)CCCCCN(CCCO)CCCCCC(=O)OC(CCCCCCCCCC)COC(=O)CCCCCCC` (stereo not shown) [E12LA8B6O3], for which, in series [1], the “Average particle size (nm)” value came to 73 nm and the PDI came out at 0.10. Also, the “Encapsulation efficiency (%)” value in series [2] came to 94.90%. Moreover, in series [4], the Luminescence intensity was found to be 7.6E+04. Besides, the Fluorescence intensity in series [3] amounted to 8.2E+08.

Take `CCCCCCCCCCC(CCOC(=O)CCCCC)OC(=O)CCCCCN(CCCO)CCCCCC(=O)OC(CCCCCCCCCC)CCOC(=O)CCCCC` (stereo not shown) [K3LA6B6O3]: in series [1], the “Average particle size (nm)” value turned out to be 129 nm and the PDI worked out at 0.08. Also, in series [2], the “Encapsulation efficiency (%)” value is given as 98.8%. Besides, the Luminescence intensity in series [4] is given as 5.4E+05. The compound also had a Fluorescence intensity in series [3] of 2.0E+09.

For the origin of these results see EP4685136A1, “AMINO LIPID, AND LIPID NANOPARTICLES AND USE THEREOF” (Shenzhen MagicRNA Biotechnology Co., Ltd., priority 2023, dated 2024).
